Assays:
TNFα = TNFα release by PHA-stimulated PBL (ELISA); type: cell-based, human; details: Example 3, GR191 PBL, Cpd II 15 and 50 μg/ml, Dex 10 μM, 72 hours, FIG. 7
Experimental: After this incubation, PHA was added to give a final concentration of 5 μg/ml, and the cells were incubated for an additional 72 hours at 37° C., 5% CO2. All cultures were performed in triplicate. Cells were then removed by centrifugation at 1000 rpm for 10 minutes.
The TNFα ELISA was performed as described in Example 2 using matched pair antibodies from Pierce Endogen (2 μg/ml for the coating antibody and 250 ng/ml for the second antibody).

[1] = test system: human umbilical vein endothelial cells (HUVECs); assay: HUVEC tube formation assay; type: cell-based; details: 18 hours, 5% FCS, 30 μg Cpd II or MP in 1 ml, LY 294002 50 μM
Experimental: Passage 4 (i.e., […]) human umbilical vein endothelial cells (HUVECs), human source lot number 9713 (obtained from ATCC) in 1 ml of endothelial growth medium-2 (EGM-2) (obtained from Cambrex) were mixed with 30 μg of the compound of formula II (Cpd II) in endothelial basal medium-2 (EBM-2) (Cambrex) or 30 μg methylphenidate (MP) in EBM-2. Water (vehicle for the two test compounds) was used as a control, and the PI3 kinase inhibitor, LY 294002 (Sigma), at 50 μM, was included as a positive control. Then, the cells were seeded at 10,000 cells/well into the wells of a plate contained in a tube formation assay kit obtained from BD Biosciences, Rockville, Md. The wells of the plate contained an extracellular matrix protein gel. Fetal calf serum (FCS) (ATCC) was added to a final concentration of 5% to initiate tube formation. Then, the plates were incubated for 18 hours at 37° C. and 5% CO2. Following the incubation, the plates were photographed with a digital camera attached to an inverted microscope (Olympus IMT-2 set at a phase contrast (PC) of 10).
When endothelial cells are cultured on extracellular matrix protein gels in the presence of angiogenic signals, they arrange themselves into structures loosely resembling capillary blood vessels. […]

erythropoietin (EPO) = assay: Erythropoietin (EPO) release from HepG2 cells (ELISA); type: cell-based, human; details: 24 hours
Experimental: HepG2 is a human hepatic cancer cell line, which was obtained from ATCC. HepG2 cells were grown to confluence in 25 cm^2 flasks in IMDM medium containing 10% FCS. Then, the cells were trypsinized as follows. The medium in each flask was aspirated and replaced with 5 ml of 0.025% trypsin/EDTA (Cambrex). The cells were monitored on a microscope until they no longer adhered to the flasks. Then, 5 ml of trypsin neutralizing solution (TNS) (Cambrex) were added to each flask to stop the reaction. The cell suspension was centrifuged at 1000 rpm for 10 minutes, and the supernatants were aspirated. The cells were reconstituted in fresh medium and counted. Then, 4 ml of the cell suspension in medium containing at 1.22×10^6 cells/ml were mixed with an additional 1 ml of medium. Next, 0.5 ml/well of the resulting cell suspension was added to wells in a 24-well culture plate (about 500,000 cells/well). The cells were treated as indicated in Table 5 below and incubated for 24 hours at 37° C., with or without 5% CO2. The supernatants were removed from the wells and centrifuged to remove debris. Next, the supernatants were analyzed for erythropoietin (EPO) production. EPO was measured by ELISA using a kit obtained from R & D Systems, Minneapolis, Minn. (catalog no. DE900) following the manufacturer's instructions.

IL-8 = IL-8 release by LPS-stimulated HUVECs (ELISA); type: cell-based, human; details: 15 μg/ml
Experimental: Passage 4 HUVECs, lot number 9713, were put into the wells of a 48-well tissue culture plate at 20,000 cells/well in 500 μl of EGM-2 complete medium (but without serum or ascorbate) supplemented with ITSS (insulin, transferrin and sodium selenite) (obtained from Sigma). Also, passage 4 HUVECs, human source lot number 7016 (obtained from ATCC), were put into the wells of a 48-well tissue culture plate at 20,000 cells/well in 500 μl of EGM-2 complete medium (but without serum or ascorbate) supplemented with ITSS. The following additives were added to the cells: water (vehicle control) and 15 μg/ml of the compound of formula II (Cpd II). After incubation for 1 hour at 37° C. and 5% CO2, LPS was added to give a final concentration of 200 ng/ml, and the cells were incubated overnight at 37° C. and 5% CO2. After this incubation, the supernatants were collected, and the amount of IL-8 in the supernatants determined by ELISA as described in Example 4.

NFκB = assay: Activated NFκB in VEGF-treated HUVECs (TransAM assay); type: cell-based, human; details: Cpd II at 15 μg/ml and 5 μg/ml
Experimental: Passage 5 HUVECs, human source lot number 8750, were grown to confluence in 25 cm^2 flasks in EGM-2 medium. The following additives were added to the flasks (total volume of 5 ml/flask) in EGM-2 medium containing 2% FCS, GA1000 (gentamycin), heparin and ascorbic acid (all from Cambrex): 1 μg/ml of the compound of formula II (Cpd II); 5 μg/ml Cpd II; 15 μg/ml of Cpd II; 15 μg/ml methylphenidate (MP); or 10 μM LY 294002. The flasks were incubated overnight at 37° C., 5% CO2. After this incubation, VEGF was added to give a final concentration 10 ng/ml, and the flasks were incubated for an additional 30 minutes.
Then, the amount of NFκB was determined using a TransAM™ NFκB p65/NFκB p50 Transcription Factor Assay Kit and a Nuclear Extract Kit from Active Motif North America, Carlsbad, Calif., according to the manufacturer's instructions. Briefly, a nuclear extract of the cells was prepared using the Nuclear Extract Kit. Then, the nuclear extract was added to the wells of the 96-well plate of the TransAM™ kit. […] Then, an antibody directed against the NFκB p65 or p50 subunit was added, and the NFκB complex bound to the oligonucleotide was detected. A secondary antibody conjugated to horseradish peroxidase (HRP) was next added to provide a colorimetric readout that was quantified by spectrophotometry (measurement at 450 nm).

[2] = mice; cited from earlier work

Structure (SMILES) | release of TNFα from PHA-stimulated PBL (TNFα) | tube formation (branching and cellular interaction of endothelial cells) [1] | Mean Units/ml EPO (erythropoietin (EPO); HepG2, hypoxia (5% CO2), Cpd II 15 μg/ml, LY 294002 25 μM, hypoxia alone 108.39 ± 2.81) | release of EPO from the HepG2 cells (erythropoietin (EPO); HepG2, hypoxia, 15 μg/ml) | IL-8 (pg/ml) (IL-8; 7016 HUVECs, LPS 200 ng/ml overnight, LPS only 53.3) | IL-8 release (IL-8; 7016 HUVECs, LPS 200 ng/ml) | decrease of IL-8 release (IL-8; 9713 HUVECs, LPS 200 ng/ml) | amount of activated NFκB (NFκB) | carcinogenicity [2]
COC(=O)C(c1ccc(-c2ccccc2)cc1)C1CCCCN1 (stereo not shown) [Cpd II] | significantly inhibited the release of TNFα | reduced the amount of branching and cellular interaction | 71.60 ± 2.01 Units/ml | significantly inhibited the release of EPO | Below detection | complete eliminated IL-8 release | 90% | reduced the amount of activated NFκB back to basal levels | 
COC(=O)C(c1ccccc1)C1CCCCN1 (stereo not shown) [methylphenidate] |  | no observable effect |  |  |  |  |  |  | some evidence that methylphenidate is carcinogenic in mice
